Assay [1] addresses intracellular GCN2 (phosphorylation of the GCN2 substrate eIF2α) (Homo sapiens (Human), UniProt Q9P2K8). As to the kind of experiment: GCN2 Cellular Inhibition Assay (AlphaScreen SureFire P-eIF2α Ser51, borrelidin-treated U2OS cells). The assay is classed as cell-based. The following applies: 10 μM borrelidin, 1 h, phosphorylated eIF2α Ser51, read-out: GCN2 Biomarker (IC50). A digest of the protocol: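 Phospho-eIF2α (Ser51) measured by AlphaScreen SureFire in lysates of U2OS cells stimulated 1 h at 37 °C with 10 μM borrelidin alongside compound, 4-fold dilutions from 40 μM. Inhibition expressed as percent relative to borrelidin-alone controls.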
For orientation: Bead proximity is the source of the signal in Alpha formats.

Another assay deals with GCN2 kinase (Homo sapiens (Human), UniProt Q9P2K8). As to the kind of experiment: GCN2 Enzyme Inhibition Assay (Transcreener ADP2 fluorescence polarization). The following applies: 280 μM ATP, 200 μM (RS)7 peptide, 4 nM GCN2, 25° C.; for Ki: Ki(app). The assay is classed as biochemical. A digest of the protocol: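 At 25 °C, GCN2 kinase (typical final concentration 4 nM) and (RS)7 peptide in Tris-HCl pH 7.5 buffer with MgCl2, NaCl and DTT were preincubated with compound for 10 min, then ATP was added for a 1 h reaction. ADP was read by FP with antibody/Alexa633 tracer. Non-linear tight-binding analysis gave IC50 and apparent Ki.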
(In general: In fluorescence polarisation assays a small probe gives low polarisation when free and higher when bound to something large.)

Assay [2] has as its system primary human pan T-cells. As to the kind of experiment: Human IL-2 Assay for GCN2 Inhibition (IL-2 secretion from T cells in low amino acid condition). Particulars: IL-2 secretion from human T cells stimulated with anti-CD3/CD28 in low amino acid condition, ELISA; for EC50: read-out: IL2/T-cell EC50. Format: cell-based. An excerpt:
Tumor microenvironment is profoundly immuno-suppressive. This may be attributed to the depletion of amino acids (like arginine and tryptophan) which triggers the activation of GCN2 in immune cells, including T cell and myeloid cells. In T cells, activation of GCN2 leads to reduce effector functions of CD8 T cells and induction and/or maintenance of immuno-suppressive T-regs. Inhibition of that immuno-suppressive response by GCN2 inhibitors enables an anti-cancer immune response by activating effector T-cells. Herein we describe an in-vitro system we established using human T-cells stimulated in low amino acid condition in order to engage the GCN2 biology. The method described involves the modulation of IL-2 levels secreted by human T cells in responses to the GCN2 inhibitors disclosed herein.
Amino acid-free RPMI was reconstituted with all but one of the amino acids found in standard RMPI (e.g. Arginine, Tryptophan), 10% charcoal-stripped fetal bovine serum, 100 Units/mL penicillin and 0.1 mg/mL streptomycin. Primary human pan T-cells were isolated using Pan T Cell Isolation Kit, human (MACS Miltenyi biotech Cat # Order no. 130-096-535) from apheresis cones and 5×104 pan T-cells per well. The purified T cells are seeded in Nunc™ 96-Well Polystyrene Round Bottom Microwell Plates (the cells are rested in No TRP media in a 15 ml falcon tube in the incubator for 30-45 minutes while titrations for tryptophan and the GCN2 inhibitor compound are made) A plate matrix was developed to titrate both a GCN2 inhibitor and the amino acid of interest ranging from “No Amino Acid” condition, up to the concentration found in the regular RPMI media (20 μM for TRP and 950 μM for Arginine). The cells were incubated for 30 min at 37° C. with the GCN2 inhibitor and then stimulated with 5×104 anti-CD3/CD28 Dynabeads® per well. After 96 hours of incubation the IL-2 level in the supernatant were measured using ELISA (R&D systems Cat # DY202 (Human IL-2 DuoSet ELISA). Data were plotted in GraphPad Prism software and EC50 is calculated.
A general note: ELISA stands for enzyme-linked immunosorbent assay.

Where two headings read alike, the source gives them in different places.

As a reminder, the IC50 is the concentration that gives 50% inhibition.

Sequence of intracellular GCN2 (phosphorylation of the GCN2 substrate eIF2α) (Q9P2K8 whole entry): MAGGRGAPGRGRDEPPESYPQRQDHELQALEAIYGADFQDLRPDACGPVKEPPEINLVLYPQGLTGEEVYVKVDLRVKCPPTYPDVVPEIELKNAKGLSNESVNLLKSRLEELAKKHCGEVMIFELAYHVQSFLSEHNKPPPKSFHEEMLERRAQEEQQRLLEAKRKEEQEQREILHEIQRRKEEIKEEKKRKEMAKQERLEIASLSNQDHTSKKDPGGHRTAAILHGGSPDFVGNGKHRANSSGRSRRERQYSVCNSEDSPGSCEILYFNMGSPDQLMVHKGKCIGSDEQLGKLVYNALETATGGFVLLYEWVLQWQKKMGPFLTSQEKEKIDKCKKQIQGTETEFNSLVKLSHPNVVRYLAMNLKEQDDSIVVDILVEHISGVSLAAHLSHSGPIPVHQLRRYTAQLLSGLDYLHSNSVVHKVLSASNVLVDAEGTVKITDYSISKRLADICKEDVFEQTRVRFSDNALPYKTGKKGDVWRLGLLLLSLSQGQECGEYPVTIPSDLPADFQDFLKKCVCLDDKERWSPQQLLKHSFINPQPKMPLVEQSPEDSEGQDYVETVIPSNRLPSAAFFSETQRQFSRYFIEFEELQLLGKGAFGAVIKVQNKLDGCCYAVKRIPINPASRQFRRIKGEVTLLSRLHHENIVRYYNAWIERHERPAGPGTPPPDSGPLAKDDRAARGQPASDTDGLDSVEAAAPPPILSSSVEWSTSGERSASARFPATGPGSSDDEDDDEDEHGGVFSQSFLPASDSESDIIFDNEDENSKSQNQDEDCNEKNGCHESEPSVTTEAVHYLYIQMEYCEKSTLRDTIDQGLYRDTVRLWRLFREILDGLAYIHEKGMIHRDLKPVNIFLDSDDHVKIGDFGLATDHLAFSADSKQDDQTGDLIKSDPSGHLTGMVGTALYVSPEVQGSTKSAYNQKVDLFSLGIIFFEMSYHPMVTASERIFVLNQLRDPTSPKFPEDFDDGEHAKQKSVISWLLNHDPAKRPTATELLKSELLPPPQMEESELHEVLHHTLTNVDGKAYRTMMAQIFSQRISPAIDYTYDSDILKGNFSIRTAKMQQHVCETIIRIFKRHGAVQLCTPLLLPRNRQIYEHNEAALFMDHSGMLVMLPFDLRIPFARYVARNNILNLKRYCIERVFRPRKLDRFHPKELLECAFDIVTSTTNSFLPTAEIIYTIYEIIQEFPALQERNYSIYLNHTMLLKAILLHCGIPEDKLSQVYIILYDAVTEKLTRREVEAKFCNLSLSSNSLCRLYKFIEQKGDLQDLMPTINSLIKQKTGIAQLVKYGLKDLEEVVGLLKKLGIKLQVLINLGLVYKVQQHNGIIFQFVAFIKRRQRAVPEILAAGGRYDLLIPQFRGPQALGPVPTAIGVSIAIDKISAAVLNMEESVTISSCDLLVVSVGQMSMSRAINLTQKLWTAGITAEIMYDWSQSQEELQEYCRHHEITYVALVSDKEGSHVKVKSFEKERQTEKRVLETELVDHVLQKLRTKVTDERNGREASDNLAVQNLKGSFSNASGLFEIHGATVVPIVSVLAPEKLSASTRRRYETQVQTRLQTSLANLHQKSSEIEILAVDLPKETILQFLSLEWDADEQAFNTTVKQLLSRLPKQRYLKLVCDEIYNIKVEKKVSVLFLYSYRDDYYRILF
Sequence of GCN2 kinase (Q9P2K8 whole entry): as above

For the molecule `C[C@H]1C[C@@H](N=S(C)(C)=O)CN(c2ccnc(-c3cnc4ccc(C(F)(F)F)cn34)n2)C1` (stereo in doubt) [I-123, Dimethyl(((3R,5S)-5-methyl-1-(2-(6-(trifluoromethyl)imidazo[1,2-a]pyridin-3-yl)pyrimidin-4-yl)piperidin-3-yl)imino)-λ6-sulfanone], the values for the 50% inhibitory concentration (IC50) (in assay [1]; against GCN2 kinase) were less than 500 nM and 10 to 100 nM, respectively. The EC50 in assay [2] (Homo sapiens, T-cell, 96 h) was more than 500 nM. Besides, in assay [2] (96 hours), the “IL2/T-cell EC50” value is on record as “− (“−” for not active)”.
As for `C[C@H]1C[C@@H](N=S(C)(C)=O)CN(c2ccnc(-c3cnc4ccc(Cl)cn34)n2)C1` (stereo in doubt) [I-128, (((3R,5S)-1-(2-(6-chloroimidazo[1,2-a]pyridin-3-yl)pyrimidin-4-yl)-5-methylpiperidin-3-yl)imino)dimethyl-λ6-sulfanone], the IC50 in assay [1] was less than 500 nM; against GCN2 kinase, 10 to 100 nM. For the same molecule, the EC50 in assay [2] (Homo sapiens, T-cell, 96 h) was more than 500 nM.
For the molecule `NC(=O)[C@H]1CCCN(c2ccnc(-c3cnc4ccc(Cl)cn34)n2)C1` [I-102, (S)-1-(2-(6-chloroimidazo[1,2-a]pyridin-3-yl)pyrimidin-4-yl)piperidine-3-carboxamide], the IC50 in assay [1] is less than 500 nM. At GCN2 kinase, the Ki was less than 10 nM. Besides, the EC50 in assay [2] (Homo sapiens, T-cell, 96 h) lay in the range of 100 to 500 nM.
In the case of `Cc1[nH]ncc1[C@@H]1CN(c2ccnc(-c3cnc4ccc(C(F)(F)F)cn34)n2)C[C@H](C)O1` [I-124, 3-{4-[(2S,6R)-2-Methyl-6-(3-methyl-1H-pyrazol-4-yl)-morpholin-4-yl]-pyrimidin-2-yl}-6-trifluoromethyl-imidazo[1,2-a]pyridine], the IC50 was less than 500 nM in assay [1] and less than 10 nM against GCN2 kinase. Also, the EC50 in assay [2] (Homo sapiens, T-cell, 96 h) is 100 to 500 nM; in assay [2] (96 hours), less than 100 nM.
`C[C@H]1CN(c2nccc(-c3cnc4ccc(C(F)(F)F)cn34)n2)C[C@@H](c2cn[nH]c2)O1` [I-126, (2S,6R)-2-methyl-6-(1H-pyrazol-4-yl)-4-{4-[6-(trifluoromethyl)imidazo[1,2-a]pyridin-3-yl]pyrimidin-2-yl}morpholine]: the 50% inhibitory concentration (IC50) was less than 500 nM in assay [1] and less than 10 nM against GCN2 kinase. For the same molecule, the EC50 in assay [2] (Homo sapiens, T-cell, 96 h) is 100 to 500 nM.
The corresponding values for `C[C@@H]1CN(c2nccc(-c3cnc4ccc(C(F)(F)F)cn34)n2)C[C@H](c2cn[nH]c2)O1` [I-127, 3-{2-[(2R,6S)-2-Methyl-6-(1H-pyrazol-4-yl)-morpholin-4-yl]-pyrimidin-4-yl}-6-trifluoromethyl-imidazo[1,2-a]pyridine] are less than 500 nM, less than 10 nM and less than 100 nM.
The corresponding values for `C[C@H]1CN(c2nccc(-c3cnc4ccc(C(F)(F)F)cn34)n2)C[C@H](c2cn[nH]c2)O1` [I-134, (2S,6S)-2-methyl-6-(1H-pyrazol-4-yl)-4-(4-(6-(trifluoromethyl)imidazo[1,2-a]pyridin-3-yl)pyrimidin-2-yl)morpholine] are less than 500 nM, 10 to 100 nM and more than 500 nM.
Taken in the same sequence, the figures for `C[C@@H]1CN(c2nccc(-c3cnc4ccc(C(F)(F)F)cn34)n2)C[C@@H](c2cn[nH]c2)O1` [I-135, (2R,6R)-2-methyl-6-(1H-pyrazol-4-yl)-4-(4-(6-(trifluoromethyl)imidazo[1,2-a]pyridin-3-yl)pyrimidin-2-yl)morpholine] were less than 500 nM, less than 10 nM and 100 to 500 nM.
For `C[C@H]1C[C@@H](C(N)=O)CN(c2ccnc(-c3cnc4ccc(C(F)(F)F)cn34)n2)C1` [I-148, (3R,5S)-5-methyl-1-(2-(6-(trifluoromethyl)imidazo[1,2-a]pyridin-3-yl)pyrimidin-4-yl)piperidine-3-carboxamide], the IC50 in assay [1] is less than 500 nM; on GCN2 kinase, less than 10 nM. Besides, in assay [2] (Homo sapiens, T-cell, 96 h), the EC50 was 100 to 500 nM.
In the case of `NC(=O)[C@H]1CCCN(c2ccnc(-c3cnc4ccc(C(F)(F)F)cn34)n2)C1` [I-154, (S)-1-[2-(6-Trifluoromethyl-imidazo[1,2-a]pyridin-3-yl)-pyrimidin-4-yl]-piperidine-3-carboxylic acid amide], the IC50 in assay [1] was less than 500 nM. Also, on GCN2 kinase, the IC50 is less than 10 nM and the Ki is less than 10 nM. For the same molecule, the EC50 in assay [2] (Homo sapiens, T-cell, 96 h) was less than 100 nM.
`C[C@H]1CN(c2nccc(-c3cnc4ccc(C(F)(F)F)cn34)n2)[C@@H](C)C(c2cn[nH]c2)N1` (stereo partly drawn) [I-170, 3-(2-((2S,5S)-2,5-dimethyl-3-(1H-pyrazol-4-yl)piperazin-1-yl)pyrimidin-4-yl)-6-(trifluoromethyl)imidazo[1,2-a]pyridine]: the IC50 in assay [1] is less than 500 nM; at GCN2 kinase, 10 to 100 nM. Moreover, the EC50 in assay [2] (Homo sapiens, T-cell, 96 h) fell in the range of 100 to 500 nM.
The corresponding values for `C[C@H]1CN(c2ccnc(-c3cnc4ccc(Cl)cn34)n2)C[C@@H](c2cn[nH]c2F)O1` [I-176, (2R,6S)-4-(2-(6-chloroimidazo[1,2-a]pyridin-3-yl)pyrimidin-4-yl)-2-(5-fluoro-1H-pyrazol-4-yl)-6-methylmorpholine] are less than 500 nM, less than 10 nM and less than 100 nM.
The corresponding values for `Cc1[nH]ncc1[C@@H]1CN(c2nccc(-c3cnc4ccc(Cl)cn34)n2)C[C@H](C)O1` [I-179, (2S,6R)-4-(4-(6-chloroimidazo[1,2-a]pyridin-3-yl)pyrimidin-2-yl)-2-methyl-6-(5-methyl-1H-pyrazol-4-yl)morpholine] are less than 500 nM, less than 10 nM and 100 to 500 nM.
For `Cc1cnc(N2C[C@H](C)C[C@H](c3cn[nH]c3)C2)nc1-c1cnc2ccc(Cl)cn12` [I-185, 6-chloro-3-(5-methyl-2-((3R,5R)-3-methyl-5-(1H-pyrazol-4-yl)piperidin-1-yl)pyrimidin-4-yl)imidazo[1,2-a]pyridine], the IC50 in assay [1] is less than 500 nM; against GCN2 kinase it was 10 to 100 nM. In addition, the “IL2/T-cell EC50” value in assay [2] (96 hours) is given as “− (“−” for not active)”.
Taken in the same sequence, the figures for `C[C@@H]1C[C@H](N=S(C)(C)=O)CN(c2ccnc(-c3cnc4cc(F)c(Cl)cn34)n2)C1` [I-191, (((3 S, 5R)-1-(2-(6-chloro-7-fluoroimidazo[1,2-a]pyridin-3-yl)pyrimidin-4-yl)-5-methylpiperidin-3-yl)imino)dimethyl-λ6-sulfanone] were less than 500 nM, 10 to 100 nM and “− (“−” for not active)”.
With `CC1CCC(C(N)=O)CN1c1ccnc(-c2cnc3ccc(C(F)(F)F)cn23)n1` (stereo not drawn) [I-200, 6-methyl-1-(2-(6-(trifluoromethyl)imidazo[1,2-a]pyridin-3-yl)pyrimidin-4-yl)piperidine-3-carboxamide], the IC50 in assay [1] was less than 500 nM; on GCN2 kinase it was less than 10 nM. Besides, in assay [2] (Homo sapiens, T-cell, 96 h), the EC50 is 100 to 500 nM.
Taken in the same sequence, the figures for `Cc1cc(-c2cnc3ccc(Cl)cn23)nc(N2C[C@H](C)C[C@H](c3cn[nH]c3)C2)n1` [I-209, 6-chloro-3-(6-methyl-2-((3R,5R)-3-methyl-5-(1H-pyrazol-4-yl)piperidin-1-yl)pyrimidin-4-yl)imidazo[1,2-a]pyridine] were less than 500 nM, 10 to 100 nM and 100 to 500 nM.
Taken in the same sequence, the figures for `NC(=O)[C@@H]1CCCN(c2ncc(F)c(-c3cnc4ccc(C(F)(F)F)cn34)n2)C1` [I-223, (R)-1-(5-fluoro-4-(6-(trifluoromethyl)imidazo[1,2-a]pyridin-3-yl)pyrimidin-2-yl)piperidine-3-carboxamide] were less than 500 nM, less than 10 nM and 100 to 500 nM.
For the molecule `C[C@H]1CN(c2nccc(-c3cnc4ccc(Cl)cn34)n2)C[C@@H](c2cn[nH]c2)O1` [I-247, 6-Chloro-3-{2-[(2S,6R)-2-methyl-6-(1H-pyrazol-4-yl)-morpholin-4-yl]-pyrimidin-4-yl}-imidazo[1,2-a]pyridine], the IC50 in assay [1] is less than 500 nM; against GCN2 kinase, less than 10 nM. Besides, the EC50 in assay [2] (Homo sapiens, T-cell, 96 h) was less than 100 nM.
